Reference: publication PMC7463537, “Synthesis and Evaluation of Antimicrobial and Cytotoxic Activity of Oxathiine-Fused Quinone-Thioglucoside Conjugates of Substituted 1,4-Naphthoquinones” (Molecules, 2020)

Columns and labels:
S. aureus ATCC 21027 = assay: Agar diffusion method, S. aureus; type: cell-based, Staphylococcus aureus; details: for zone of inhibition at 100 µg/disc: ATCC21027, 24 h, 100 µg/well, 24 h, incl. 7 mm well
Protocol: (§1) Elyakov Pacific Institute of Bioorganic Chemistry, Far East Branch, Russian Academy of Sciences. Test substances were dissolved in DMSO at concentrations of 1.0, 0.1, and 0.01 mg/mL. All strains were grown on trypticase-soy agar TSA (BBL) at 37 °C. […] After incubation of the dishes at 37 °C for 24 h (for bacteria) and 48 h (for the fungus) at 28 °C, the diameters of the growth inhibition zones of pathogenic microorganisms (mm) were measured, including the diameter of the wells. Commercial antibacterial drugs (vancomicin and gentamicin) and antifungal (clotrimazol) drugs were used as positive controls.

B. cereus ATCC 10702 = assay: Agar diffusion method, B. cereus; type: cell-based, Bacillus cereus; details: for zone of inhibition at 100 µg/disc: ATCC10702, 24 h, 100 µg/well, 24 h, incl. 7 mm well
Protocol: as §1

P. aeruginosa ATCC 27853 = assay: Agar diffusion method, P. aeruginosa; type: cell-based, Pseudomonas aeruginosa; details: for zone of inhibition at 100 µg/disc: ATCC27853, 100 µg/well
Protocol: as §1

E. coli K-12 = assay: Agar diffusion method, E. coli; type: cell-based, Escherichia coli
Protocol: as §1

C. albicans KMM 453 = assay: Agar diffusion method, C. albicans; type: cell-based; details: Candida albicans, KMM453, 48 h, 100 µg/well, 48 h at 28 °C; read-out: Diameter of Zone Inhibition, C. albicans
Protocol: as §1

[1] = tested on: human cervical cancer (HeLa); assay: Cytotoxicity, MTT assay, HeLa cells; details: for EC50: Homo sapiens, HeLa, 24 h, read-out: Cytotoxicity (EC50), HeLa; for Selectivity Index (SI), HeLa: SI = EC50 (Jb6 Cl 41-5a normal cells)/EC50 (tumor cells)
[2] = tested on: mouse neuroblastoma (Neuro 2a); assay: Cytotoxicity, MTT assay, Neuro 2a cells; details: for EC50: N2a, 24 h, read-out: Cytotoxicity (EC50), Neuro 2a; for Selectivity Index (SI), Neuro-2a: SI = EC50 (Jb6 Cl 41-5a normal cells)/EC50 (tumor cells)
[3] = Cytotoxicity, MTT assay, Jb6 Cl 41-5a normal epithelial cells; details: mouse, Jb6 Cl 41-5a normal epithelial cells
[4] = tested on: mouse ascites Ehrlich carcinoma; assay: Cytotoxicity, nonspecific esterase (FDA) assay, ascites Ehrlich carcinoma cells; details: for EC50: Mus musculus, Ehrlich, 24 h, read-out: Cytotoxicity (EC50), Ascites Ehrlich Carcinoma; for Selectivity Index (SI), Ascitic Ehrlich Carcinoma: SI = EC50 (Jb6 Cl 41-5a normal cells)/EC50 (tumor cells)
[5] = Staphylococcus aureus, read-out: Diameter of Zone Inhibition, S. aureus
[6] = Bacillus cereus, read-out: Diameter of Zone Inhibition, B. cereus
[7] = Pseudomonas aeruginosa, read-out: Diameter of Zone Inhibition, P. aeruginosa
[8] = Escherichia coli, K12, 100 µg/well, read-out: Diameter of Zone Inhibition, E. coli

COc1c(Cl)c(Cl)c(OC)c2c1C(=O)C1=C(S[C@@H]3O[C@H](CO)[C@H](O)[C@H](O)[C@H]3O1)C2=O [Compound 18b, (2R,3R,4S,4aR,12aS)-8,9-Dichloro-3,4-dihydroxy-2-(hydroxymethyl)-7,10-dimethoxy-3,4,4a,12a-tetrahydro-2H-naphtho[2,3-b]pyrano[2,3-e][2,5]oxathiine-6,11-dione]
zone of inhibition at 100 µg/disc (S. aureus ATCC 21027; [5]): 0 mm | zone of inhibition at 100 µg/disc (B. cereus ATCC 10702; [6]): 0 mm | zone of inhibition at 100 µg/disc (P. aeruginosa ATCC 27853; [7]): 0 mm | zone of inhibition at 100 µg/disc (E. coli K-12; [8]): 0 mm | zone of inhibition at 100 µg/disc (C. albicans KMM 453): 0 mm | melting point: 276 to 279 °C | EC50 [1]: 8 µM | Selectivity Index (SI), HeLa [1]: 0.4 | EC50 [2]: 2.9 µM | Selectivity Index (SI), Neuro-2a [2]: 1 | EC50 at 24 h [3]: 2.9 µM | EC50 [4]: 1.1 µM | Selectivity Index (SI), Ascitic Ehrlich Carcinoma [4]: 2.6

COc1c(Cl)c(Cl)c(OC)c2c1C(=O)C1=C(S[C@@H]3OC[C@@H](O)[C@H](O)[C@H]3O1)C2=O [Compound 18c, (3R,4S,4aR,12aS)-8,9-Dichloro-3,4-dihydroxy-7,10-dimethoxy-3,4,4a,12a-tetrahydro-2H-naphtho[2,3-b]pyrano[2,3-e][2,5]oxathiine-6,11-dione]
zone of inhibition at 100 µg/disc (S. aureus ATCC 21027; [5]): < 20 mm | zone of inhibition at 100 µg/disc (B. cereus ATCC 10702; [6]): < 20 mm | zone of inhibition at 100 µg/disc (P. aeruginosa ATCC 27853; [7]): 0 mm | Diameter of Zone Inhibition, E. coli (E. coli K-12; 100 µg/well): not active | zone of inhibition at 100 µg/disc (E. coli K-12; [8]): 0 mm | zone of inhibition at 100 µg/disc (C. albicans KMM 453): 0 mm | melting point: 277 to 279 °C | EC50 [1]: 10.1 µM | Selectivity Index (SI), HeLa [1]: 0.4 | EC50 [2]: 4.1 µM | Selectivity Index (SI), Neuro-2a [2]: 0.9 | EC50 at 24 h [3]: 3.8 µM | EC50 [4]: 4.5 µM | Selectivity Index (SI), Ascitic Ehrlich Carcinoma [4]: 0.8

COc1c(Cl)c(Cl)c(OC)c2c1C(=O)C1=C(S[C@@H]3OC[C@H](O)[C@H](O)[C@H]3O1)C2=O [Compound 18d, (3S,4S,4aR,12aS)-8,9-Dichloro-3,4-dihydroxy-7,10-dimethoxy-3,4,4a,12a-tetrahydro-2H-naphtho[2,3-b]pyrano[2,3-e][2,5]oxathiine-6,11-dione]
zone of inhibition at 100 µg/disc (S. aureus ATCC 21027; [5]): < 20 mm | zone of inhibition at 100 µg/disc (B. cereus ATCC 10702; [6]): < 20 mm | zone of inhibition at 100 µg/disc (P. aeruginosa ATCC 27853; [7]): 0 mm | Diameter of Zone Inhibition, E. coli (E. coli K-12; 100 µg/well): not active | zone of inhibition at 100 µg/disc (E. coli K-12; [8]): 0 mm | zone of inhibition at 100 µg/disc (C. albicans KMM 453): 0 mm | melting point: 286 to 289 °C | EC50 [1]: 8.7 µM | Selectivity Index (SI), HeLa [1]: 0.5 | EC50 [2]: 2.8 µM | Selectivity Index (SI), Neuro-2a [2]: 1.5 | EC50 at 24 h [3]: 4.3 µM | EC50 [4]: 4.1 µM | Selectivity Index (SI), Ascitic Ehrlich Carcinoma [4]: 1

O=C1C2=C(S[C@@H]3OC[C@@H](O)[C@H](O)[C@H]3O2)C(=O)c2c(O)cccc21 [Compound 19c, (3R,4S,4aR,12aS)-3,4,10-Trihydroxy-3,4,4a,12a-tetrahydro-2H-naphtho[2,3-b]pyrano[2,3-e][2,5]oxathiine-6,11-dione]
zone of inhibition at 100 µg/disc (S. aureus ATCC 21027; [5]): 8 ± 1 mm | zone of inhibition at 100 µg/disc (B. cereus ATCC 10702; [6]): 10 ± 2 mm | zone of inhibition at 100 µg/disc (P. aeruginosa ATCC 27853; [7]): 0 mm | zone of inhibition at 100 µg/disc (E. coli K-12; [8]): 0 mm | zone of inhibition at 100 µg/disc (C. albicans KMM 453): 0 mm | melting point: 348 to 350 °C (dec.) | EC50 [1]: 4.9 µM | Selectivity Index (SI), HeLa [1]: 1.2 | EC50 [2]: 13.3 µM | Selectivity Index (SI), Neuro-2a [2]: 0.4 | EC50 at 24 h [3]: 5.9 µM | EC50 [4]: 7.4 µM | Selectivity Index (SI), Ascitic Ehrlich Carcinoma [4]: 0.8

CNC(C)C1CCC(N)C(OC2C(N)CC(N)C(OC3OCC(C)(O)C(NC)C3O)C2O)O1 (centres unmarked) [Gentamicin (disk), reference compound]
zone of inhibition at 10 µg/disc (S. aureus ATCC 21027; Staphylococcus aureus, ATCC21027, 10 µg/well (gentamicin: disk), read-out: Diameter of Zone Inhibition, S. aureus): 25 ± 2 mm | zone of inhibition at 10 µg/disc (B. cereus ATCC 10702; Bacillus cereus, ATCC10702, 10 µg/well (gentamicin: disk), read-out: Diameter of Zone Inhibition, B. cereus): 25 ± 1 mm | zone of inhibition at 10 µg/disc (P. aeruginosa ATCC 27853; Pseudomonas aeruginosa, ATCC27853, 10 µg (disk), read-out: Diameter of Zone Inhibition, P. aeruginosa): 18 ± 2 mm | zone of inhibition at 10 µg/disc (E. coli K-12; Escherichia coli, K12, 10 µg (disk), read-out: Diameter of Zone Inhibition, E. coli): 22 ± 3 mm

CN[C@H](CC(C)C)C(=O)N[C@H]1C(=O)N[C@@H](CC(N)=O)C(=O)N[C@H]2C(=O)N[C@H]3C(=O)N[C@H](C(=O)N[C@H](C(=O)O)c4cc(O)cc(O)c4-c4cc3ccc4O)[C@H](O)c3ccc(c(Cl)c3)Oc3cc2cc(c3O[C@@H]2O[C@H](CO)[C@@H](O)[C@H](O)[C@H]2O[C@H]2C[C@](C)(N)[C@H](O)[C@H](C)O2)Oc2ccc(cc2Cl)[C@H]1O [Vancomicin (disk), reference compound]
Diameter of Zone Inhibition, S. aureus (S. aureus ATCC 21027; 30 µg (disk)): 20 ± 2 mm | Diameter of Zone Inhibition, B. cereus (B. cereus ATCC 10702; 30 µg (disk)): 20 ± 3 mm | Diameter of Zone Inhibition, P. aeruginosa (P. aeruginosa ATCC 27853; 30 µg (disk)): 0 mm | Diameter of Zone Inhibition, E. coli (E. coli K-12; 30 µg (disk)): 0 mm
